Experimental data: patent US8470736B2, “Turfgrass quality” (Syngenta Crop Protection, LLC, priority 2008, dated 2013)

Assays:
Format in all cases: in vivo
[1] = test system: bentgrass (Agrostis palustris) variety Crenshaw; assay: Turfgrass quality assessment, Example 1
Description: (§1) Compositions comprising methyl jasmonate (as a SL formulation, purchased from Fischer), trinexapac-ethyl (in the form of Primo MAXX®), or both (as a tank mix) were tested at various rates for effects on bentgrass (Agrostis palustris) variety Crenshaw. All treatments included the adjuvant NIS, at 0.25% v/v. Assessments of percentage injury to the turfgrass, and turfgrass quality (on a standard scale of 1 to 9) were made at various time intervals after treatment.

[2] = test system: bentgrass (Agrostis palustris) variety Crenshaw; assay: Turfgrass colour assessment, Example 1; conditions: 43 DA-A (17 DA-B)
Description: as §1

[3] = test system: bentgrass (Agrostis palustris) variety Crenshaw; assay: Percentage injury to the turfgrass, Example 1; conditions: TXP 96 g ai/ha, methyl jasmonate 0 g ai/ha
Description: Compositions comprising methyl jasmonate (as a SL formulation, purchased from Fischer), trinexapac-ethyl (in the form of Primo MAXX®), or both (as a tank mix) were tested at various rates for effects on bentgrass (Agrostis palustris) variety Crenshaw. All treatments included the adjuvant NIS, at 0.25% v/v.

[4] = test system: bentgrass (Agrostis palustris) variety A1; assay: Colour (greenness) assessment, Example 2; conditions: jasmonic acid 0 g ai/ha
Description: Compositions comprising methyl jasmonate (purchased from Aldrich), trinexapac-ethyl (in the form of Primo MAXX® 120EC), or both (as a tank mix) were tested at various rates for effects on bentgrass (Agrostis palustris) variety A1. Assessments of greenness were made at 5 and 12 days after the second treatment.

[5] = test system: bentgrass (Agrostis palustris) variety A1; assay: Colour (greenness) assessment, Example 2; conditions: TXP 0 g ai/ha

CCOC(=O)C1CC(=O)C(=C(O)C2CC2)C(=O)C1 (stereo not shown) [Trinexapac-ethyl only, trinexapac-ethyl]
Quality (scale: 1 poor to 9 excellent) ([1]; TXP 96 g ai/ha, methyl jasmonate 0 g ai/ha, 33 DA-A (7 DA-B)): 7.2 | Quality (scale: 1 poor to 9 excellent) ([1]; TXP 96 g ai/ha, methyl jasmonate 0 g ai/ha, 43 DA-A (17 DA-B)): 7.4 | Quality (scale: 1 poor to 9 excellent) ([1]; TXP 96 g ai/ha, methyl jasmonate 0 g ai/ha, 56 DA-A (30 DA-B)): 7.0 | Colour (scale: 1 poor to 9 excellent) ([2]; TXP 96 g ai/ha, methyl jasmonate 0 g ai/ha): 7.3 | Injury (%) ([3]; 8 DA-A): 5% | Injury (%) ([3]; 14 DA-A): 7% | Greenness (scale of 1-10 by comparison with the untreated control) ([4]; TXP 57 g ai/ha, 5 DA-B): 0.0 | Greenness (scale of 1-10 by comparison with the untreated control) ([4]; TXP 57 g ai/ha, 12 DA-B): 0.0 | Greenness (scale of 1-10 by comparison with the untreated control) ([4]; TXP 96 g ai/ha, 5 DA-B): 3.5 | Greenness (scale of 1-10 by comparison with the untreated control) ([4]; TXP 96 g ai/ha, 12 DA-B): 3.5

CC/C=C\C[C@H]1C(=O)CC[C@@H]1CC(=O)OC [Methyl jasmonate only, methyl (1R,2R)-3-Oxo-2-(2Z)-2-pentenyl-cyclopentaneacetate]
Quality (scale: 1 poor to 9 excellent) ([1]; TXP 0 g ai/ha, methyl jasmonate 168 g ai/ha, 33 DA-A (7 DA-B)): 7.1 | Quality (scale: 1 poor to 9 excellent) ([1]; TXP 0 g ai/ha, methyl jasmonate 168 g ai/ha, 43 DA-A (17 DA-B)): 7.2 | Quality (scale: 1 poor to 9 excellent) ([1]; TXP 0 g ai/ha, methyl jasmonate 168 g ai/ha, 56 DA-A (30 DA-B)): 7.0 | Quality (scale: 1 poor to 9 excellent) ([1]; TXP 0 g ai/ha, methyl jasmonate 336 g ai/ha, 33 DA-A (7 DA-B)): 7.0 | Quality (scale: 1 poor to 9 excellent) ([1]; TXP 0 g ai/ha, methyl jasmonate 336 g ai/ha, 43 DA-A (17 DA-B)): 7.2 | Quality (scale: 1 poor to 9 excellent) ([1]; TXP 0 g ai/ha, methyl jasmonate 336 g ai/ha, 56 DA-A (30 DA-B)): 7.0 | Quality (scale: 1 poor to 9 excellent) ([1]; TXP 0 g ai/ha, methyl jasmonate 670 g ai/ha, 33 DA-A (7 DA-B)): 6.9 | Quality (scale: 1 poor to 9 excellent) ([1]; TXP 0 g ai/ha, methyl jasmonate 670 g ai/ha, 43 DA-A (17 DA-B)): 7.0 | Quality (scale: 1 poor to 9 excellent) ([1]; TXP 0 g ai/ha, methyl jasmonate 670 g ai/ha, 56 DA-A (30 DA-B)): 7.0 | Colour (scale: 1 poor to 9 excellent) ([2]; TXP 0 g ai/ha, methyl jasmonate 168 g ai/ha): 7.2 | Colour (scale: 1 poor to 9 excellent) ([2]; TXP 0 g ai/ha, methyl jasmonate 336 g ai/ha): 7.2 | Colour (scale: 1 poor to 9 excellent) ([2]; TXP 0 g ai/ha, methyl jasmonate 670 g ai/ha): 7.0 | Greenness (scale of 1-10 by comparison with the untreated control) ([5]; jasmonic acid 168 g ai/ha, 5 DA-B): 0.0 | Greenness (scale of 1-10 by comparison with the untreated control) ([5]; jasmonic acid 168 g ai/ha, 12 DA-B): 0.5 | Greenness (scale of 1-10 by comparison with the untreated control) ([5]; jasmonic acid 336 g ai/ha, 5 DA-B): 0.0 | Greenness (scale of 1-10 by comparison with the untreated control) ([5]; jasmonic acid 336 g ai/ha, 12 DA-B): 0.0 | Greenness (scale of 1-10 by comparison with the untreated control) ([5]; jasmonic acid 672 g ai/ha, 5 DA-B): 0.0 | Greenness (scale of 1-10 by comparison with the untreated control) ([5]; jasmonic acid 672 g ai/ha, 12 DA-B): 0.0
